Experimental data published in the supplement of paper PMC4862054.

How the values were obtained:
Settings in all cases: 72 h
[1] = test system: BT-549
Description: (§1)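 Drug sensitivity and resistance testing (DSRT) of breast cancer cell lines in 384-well plates, 5 concentrations in 10-fold dilutions over a compound-specific 10,000-fold range. After 72 h, cytotoxicity was read by CellTox Green fluorescence and viability by CellTiter-Glo luminescence (multiplexed), normalised to DMSO and benzethonium chloride controls. EC50 is the inflection point of the fitted dose-response curve (bottom asymptote free, so it can be relative for partial curves) and is censored at the highest tested concentration. Rows with DSS 0 (no meaningful response) were excluded.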

[2] = test system: MDA-MB-231
Description: as §1

[3] = test system: HCC1937
Description: as §1

[4] = test system: BT-474
Description: as §1

[5] = test system: CAL-51
Description: as §1

[6] = test system: MDA-MB-468
Description: as §1

[7] = test system: CAL-148
Description: as §1

[8] = test system: BT-549; remark: listed apart in the source
How it was run: (§2)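 Breast cancer cell lines in 20 µl suspension were added to 384-well plates already holding compound at 5 concentrations, spaced in 10-fold steps across a compound-specific 10,000-fold range, and incubated for 72 h. CellTox Green fluorescence (485/520 nm) was read first to measure cell death, followed by CellTiter-Glo luminescence for viability after 10 min at room temperature. Each plate was normalised to 0.1 % DMSO and a positive kill control. EC50 values came from dose-response curve fits and were censored at the top concentration.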

[9] = test system: MDA-MB-231; remark: listed apart in the source
How it was run: as §2

[10] = test system: Hs578T
How it was run: as §2

[11] = test system: HCC1937; remark: listed apart in the source
How it was run: as §2

[12] = test system: MDA-MB-436
How it was run: as §2

[13] = test system: BT-474; remark: listed apart in the source
How it was run: as §2

[14] = test system: HCC1143
How it was run: as §2

[15] = test system: CAL-51; remark: listed apart in the source
How it was run: as §2

[16] = test system: DU-4475
How it was run: as §2

[17] = test system: CAL-148; remark: listed apart in the source
How it was run: as §2

[18] = test system: HDQ-P1
How it was run: as §2

[19] = test system: MFM-223
How it was run: as §2

Question: For `COc1cc(Nc2ncc3c(n2)-c2ccc(Cl)cc2C(c2c(F)cccc2OC)=NC3)ccc1C(=O)O` [Alisertib], which “EC50, CellTox Green” value [1] is on record?
Answer: 756 nM

Question: And the “EC50, CellTox Green” value [2]?
Answer: 14.8 nM

Question: And the “EC50, CellTox Green” value [3]?
Answer: 7460 nM

Question: What about the “EC50, CellTox Green” value [4] of the same compound?
Answer: 8370 nM

Question: And the “EC50, CellTox Green” value [5]?
Answer: 18.2 nM

Question: And the “EC50, CellTox Green” value [6]?
Answer: 15.5 nM

Question: And the “EC50, CellTox Green” value [7]?
Answer: 156 nM

Question: And the “EC50, CellTiter-Glo” value [8]?
Answer: 177 nM

Question: And the “EC50, CellTiter-Glo” value [9]?
Answer: 990 nM

Question: And the “EC50, CellTiter-Glo” value [10]?
Answer: 77.9 nM

Question: And the “EC50, CellTiter-Glo” value [11]?
Answer: 1740 nM

Question: And the “EC50, CellTiter-Glo” value [12]?
Answer: 27 nM

Question: What about the “EC50, CellTiter-Glo” value [13] of the same compound?
Answer: 76.1 nM

Question: What about the “EC50, CellTiter-Glo” value [14] of the same compound?
Answer: 41.6 nM

Question: What about the “EC50, CellTiter-Glo” value [15] of the same compound?
Answer: 76.4 nM

Question: What about the “EC50, CellTiter-Glo” value [16] of the same compound?
Answer: 24.6 nM

Question: What about the “EC50, CellTiter-Glo” value [17] of the same compound?
Answer: 659 nM

Question: What about the “EC50, CellTiter-Glo” value [18] of the same compound?
Answer: 8410 nM

Question: What about the “EC50, CellTiter-Glo” value [19] of the same compound?
Answer: 615 nM
